# Assay results: US20180008592A1, “TREATMENT OF UREMIC PRURITUS” (TREVI THERAPEUTICS, INC., priority 2016, published 2018)
# Columns and labels:
# Type in all cases: in vivo, human
# [1] = system: renally impaired patients on hemodialysis with moderate or severe uremic pruritus; experiment: Randomized double-blind placebo-controlled trial: Worst Itching Intensity Numerical Rating Scale (NRS); details: for Change from Baseline to the Evaluation Period NRS (mean SD): weeks 7 and 8, scale 0-10; for patients with ≧15% change from baseline to the Evaluation Period in the NRS: p=NS; for NRS, Change from Baseline to the Evaluation Period, mean (SD): severe pruritus subgroup (Baseline NRS ≧ 7), post-hoc
# Experimental: (§1) This clinical study was a parallel, double-blind, placebo-controlled trial in which renally impaired patients on hemodialysis with moderate or severe uremic pruritus were randomized in a 1:1:1 ratio to nalbuphine ER tablets to a target dose of 120 mg BID or 60 mg BID, or matching placebo tablets BID. Medications taken for treatment of pruritus (“antipruritic medications”) were not prohibited, but their use was recorded throughout the study. Use of skin emollients was also not restricted. A placebo comparator was chosen because there are no approved treatments for uremic pruritus in the United States or Europe or an established standard of care that could serve as an active control.
# (§2) The primary objectives were to evaluate the effects on itching intensity using a Worst Itching Intensity Numerical Rating Scale (NRS, 0 [no itching]-10 [worst possible itching]) (FIG. 7) as well as safety and tolerability. The study was conducted at 46 United States investigative sites and 6 investigative sites in Romania and Poland. The Sponsor oversaw the conduct of the trial and an independent unblinded Data Safety Monitoring Board reviewed safety data approximately once a month during the conduct of the trial.
# To be eligible, patients had to have been on hemodialysis for 3 months, have a Patient Assessed Disease Severity (PADS) category of “B” or “C”, and a mean of 6 Worst Itching Numerical Rating Scale Scores during the week prior to randomization ≧4.5 on an 11-point scale (0, “no itching” to 10, “worst possible itching”) with at least 2 scores ≧5.0.
# (§3) The primary endpoint was the change from Baseline to the Evaluation Period (Study weeks 7 and 8) in the modified intent-to-treat population. Quality of life-related secondary endpoints included change from Day 1 to the Evaluation Period in itching-related quality of life (using the Skindex-10 (FIG. 8)) and itching-related sleep disruption (using the Itch Medical Outcomes Study [Itch MOS] (FIG. 9), SLP-9). The Hospital Anxiety and Depression Score (HADS) used as a general measure of anxiety and depression. All patient-reported outcomes measures were selected based on their prior validation in uremic pruritus patients specifically or in the dialysis population more generally.
# Patients were analyzed by group to which they were randomized.
# (§4) The primary and quality of life secondary endpoint analyses used a mixed model repeated measures ANCOVA with the main effects of treatment and site and baseline worst itch NRS score as the covariate. The model included time (i.e. Visit) as a factor variable and treatment*time (with placebo as the reference category) with an unstructured covariance structure for repeated measures. Data from all post-baseline visits were used to fit the model. For the primary endpoint, the baseline value was defined as the mean of worst itch daytime and nighttime NRS scores used for satisfying the protocol inclusion criterion #5 (mean worst itching NRS≧4.5 based on a total of 3 daytime and 3 nighttime measurements from 3 dialysis visits). For the secondary endpoints, the baseline value was based on a measurement taken on Study Day 1, prior to randomization. A pre-specified step-down procedure was used. The first comparison was of nalbuphine 120 mg BID dose vs. placebo. If the first comparison was significant at the p<0.05 level, then the comparison between the nalbuphine 60 mg BID dose vs. placebo would be conducted. Patients with a 15% or greater response in worst itch NRS were analyzed using a Cochran-Mantel-Haenszel (CMH) test. Analysis of the Itch MOS utilized the SLP-9 scoring algorithm.
# In the first 2 weeks of treatment, patients were blindly force-titrated to their assigned target dose, with the patients in the active arms reaching a dose of 60 mg BID (NAL 60) after the first week and, for those in the high dose group, to 120 mg BID (NAL 120) after the second week. Study drug was administered in blister cards containing the labeled morning and evening doses for each day of the week. […]
# [2] = system: renally impaired patients on hemodialysis with moderate or severe uremic pruritus; experiment: Same trial: safety and tolerability (adverse events, discontinuation)
# Text: The term “adverse event” (AE) as used herein is defined as any untoward medical occurrence in a clinical investigation patient reported on or after the first screening date. […] An AE can therefore be any unfavorable and unintended sign (including an abnormal laboratory finding), symptom whether or not related to the medicinal (investigational) product, or disease temporally associated with the use of a medicinal (investigational) product. Typical adverse events include nausea, vomiting, somnolence, dizziness and hallucination. In accordance with the present invention, the rate of adverse events after the treatment is substantially the same as the rate of adverse events after administering a placebo for the same period of time.
# as §1, §2
# In the first 2 weeks of treatment, patients were blindly force-titrated to their assigned target dose, with the patients in the active arms reaching a dose of 60 mg BID (NAL 60) after the first week and, for those in the high dose group, to 120 mg BID (NAL 120) after the second week. Study drug was administered in blister cards containing the labeled morning and evening doses for each day of the week. Subsequently, patients continued stable doses of the study drug for an additional 6 weeks and were then washed off study drug and followed for another 2 weeks for itching intensity and safety. No down-titration was permitted during the study, although patients who missed 6 or more consecutive doses during the Stable Dose Period (Weeks 3-8) could, with the Medical Monitor's approval, re-start treatment with blinded re-titration of just the morning or evening dose for 3 days before returning to the original dose. Patients were allowed to remain on their background antipruritic medications such as antihistamines and the use of these medications and indication for treatment was collected.
# [3] = system: renally impaired patients on hemodialysis with moderate or severe uremic pruritus; experiment: Same trial: Hospital Anxiety and Depression Scale (HADS)
# Text: as §3, §4
# In the first 2 weeks of treatment, patients were blindly force-titrated to their assigned target dose, with the patients in the active arms reaching a dose of 60 mg BID (NAL 60) after the first week and, for those in the high dose group, to 120 mg BID (NAL 120) after the second week. Study drug was administered in blister cards containing the labeled morning and evening doses for each day of the week. Subsequently, patients continued stable doses of the study drug for an additional 6 weeks and were then washed off study drug and followed for another 2 weeks for itching intensity and safety. […]
compound,measurement,setting,value
"Cl.Oc1ccc2c3c1O[C@H]1[C@@H](O)CC[C@@]4(O)[C@@H](C2)N(CC2CCC2)CC[C@]314 [Nalbuphine, 17-(cyclobutylmethyl)-4,5α-epoxymorphinian-3,6α, 14-triol, hydrochloride]",difference vs. placebo in worst itching NRS (primary endpoint),[1]; 60 mg BID,no significant difference
same,Change from Baseline to the Evaluation Period NRS (mean SD),"[1]; 60 mg BID ER tablets, N = 128, baseline NRS 6.9 (1.4)",−3.1 (2.4)
same,"Difference in the Change from Baseline to the Evaluation Period (LSMEAN, SE) vs. placebo","[1]; 60 mg BID, 95% CI (−0.84, 0.37), p = 0.441",−0.24 (0.31)
same,patients with ≧15% change from baseline to the Evaluation Period in the NRS,[1]; 60 mg BID,80.5%
same,Change from Baseline to the Evaluation Period NRS (mean SD),"[1]; 120 mg BID ER tablets, N = 120, baseline NRS 6.9 (1.5), hydrochloride",−3.5 (2.4)
same,development of tolerance to the effect on itch,"[1]; 120 mg BID, 8-week treatment period",no apparent development of tolerance
same,"Difference in the Change from Baseline to the Evaluation Period (LSMEAN, SE) vs. placebo","[1]; 120 mg BID, 95% CI (−1.34, −0.13), p = 0.017",−0.73 (0.31)
same,reduction in itching intensity,"[1]; 120 mg BID, moderate and severe uremic pruritus",49%
same,patients with ≧15% change from baseline to the Evaluation Period in the NRS,[1]; 120 mg BID,84.5%
same,"NRS, Change from Baseline to the Evaluation Period, mean (SD)","[1]; 60 mg BID, N = 61, baseline 8.0 (0.9)",−3.4 (2.6)
same,"NRS, Change from Baseline to the Evaluation Period, mean (SD)","[1]; 120 mg BID, N = 63, baseline 8.2 (0.8), p < 0.01",−4.5
same,improvement of itching intensity and Itch MOS compared with placebo,"[1]; severe subgroup (Baseline NRS ≧7.0), 60 mg BID",Neither itching intensity nor Itch MOS improved significantly
same,decrease of mean itching intensity,"[1]; severe subgroup (Baseline NRS ≧7.0), 120 mg BID",55%
same,absolute reduction of mean itching intensity (NRS),"[1]; severe subgroup (Baseline NRS ≧7.0, n=179), 120 mg BID, baseline 8.2 (0.8), p=0.007 vs. placebo",4.5 (2.5)
same,Adverse Events Leading to Discontinuation: Dizziness,[2]; 60 mg BID,0.8%
same,Adverse Events Leading to Discontinuation: Hallucination,[2]; 60 mg BID,1.6%
same,Adverse Events Leading to Discontinuation: Nausea,[2]; 60 mg BID,9.5%
same,Adverse Events Leading to Discontinuation: Somnolence,[2]; 60 mg BID,4.0%
same,Adverse Events Leading to Discontinuation: Vomiting,[2]; 60 mg BID,9.5%
same,"Adverse Events Leading to Discontinuation, number of patients","[2]; 60 mg BID, N = 128",33
same,"Adverse Events Leading to Discontinuation, percent of patients","[2]; 60 mg BID, N = 128",26.2%
same,Serious Adverse Events (incidence),"[2]; 60 mg BID, N = 128, hydrochloride",12.7%
same,Serious Adverse Events (incidence),"[2]; 60 mg BID, N = 128, listed as NAL 60, hydrochloride",12.7%
same,Adverse Events Leading to Discontinuation: Dizziness,[2]; 120 mg BID,2.5%
same,Adverse Events Leading to Discontinuation: Hallucination,[2]; 120 mg BID,2.5%
same,Adverse Events Leading to Discontinuation: Nausea,[2]; 120 mg BID,10.0%
same,Adverse Events Leading to Discontinuation: Somnolence,[2]; 120 mg BID,1.7%
same,Adverse Events Leading to Discontinuation: Vomiting,[2]; 120 mg BID,5.0%
same,"Adverse Events Leading to Discontinuation, number of patients","[2]; 120 mg BID, N = 120",27
same,"Adverse Events Leading to Discontinuation, percent of patients","[2]; 120 mg BID, N = 120",22.5%
same,Serious Adverse Events (incidence),"[2]; 120 mg BID, N = 120, hydrochloride",6.7%
same,Serious Adverse Events (incidence),"[2]; 120 mg BID, N = 120, listed as NAL 120, hydrochloride",6.7%
same,"mood effects (adverse event reporting, Skindex-10 mood domain, HADS)","[2]; ER tablets, both doses",neutral in mood effects
same,safety profile,"[2]; ER tablets, both doses",no adverse safety trends other than those expected from a centrally-acting opioid
same,"HADS Anxiety Subscale (0-21), change from Baseline to the Evaluation Period, mean (SD)","[3]; 60 mg BID, N = 128",−1.72 (3.0)
same,"HADS Depression Subscale (0-21), change from Baseline to the Evaluation Period, mean (SD)","[3]; 60 mg BID, N = 128",−0.68 (3.1)
same,"HADS Anxiety Subscale (0-21), change from Baseline to the Evaluation Period, mean","[3]; 120 mg BID, N = 120",−1.64
same,"HADS Depression Subscale (0-21), change from Baseline to the Evaluation Period, mean","[3]; 120 mg BID, N = 120",−1.03
